From patent US11655235B2, “Pyrrolidine and piperidine compounds” (YUHAN CORPORATION, priority 2019, dated 2023)

What was measured:
Format in all cases: biochemical
[1] = molecular target: T1, Recombinant human FAP (Homo sapiens, UniProt Q12884); experiment: FAP inhibition, fluorogenic substrate Z-Gly-Pro-AMC; settings: 25° C., Z-Gly-Pro-AMC substrate
T1 construct: purchased R&D systems
T1 sequence (Q12884 1-760): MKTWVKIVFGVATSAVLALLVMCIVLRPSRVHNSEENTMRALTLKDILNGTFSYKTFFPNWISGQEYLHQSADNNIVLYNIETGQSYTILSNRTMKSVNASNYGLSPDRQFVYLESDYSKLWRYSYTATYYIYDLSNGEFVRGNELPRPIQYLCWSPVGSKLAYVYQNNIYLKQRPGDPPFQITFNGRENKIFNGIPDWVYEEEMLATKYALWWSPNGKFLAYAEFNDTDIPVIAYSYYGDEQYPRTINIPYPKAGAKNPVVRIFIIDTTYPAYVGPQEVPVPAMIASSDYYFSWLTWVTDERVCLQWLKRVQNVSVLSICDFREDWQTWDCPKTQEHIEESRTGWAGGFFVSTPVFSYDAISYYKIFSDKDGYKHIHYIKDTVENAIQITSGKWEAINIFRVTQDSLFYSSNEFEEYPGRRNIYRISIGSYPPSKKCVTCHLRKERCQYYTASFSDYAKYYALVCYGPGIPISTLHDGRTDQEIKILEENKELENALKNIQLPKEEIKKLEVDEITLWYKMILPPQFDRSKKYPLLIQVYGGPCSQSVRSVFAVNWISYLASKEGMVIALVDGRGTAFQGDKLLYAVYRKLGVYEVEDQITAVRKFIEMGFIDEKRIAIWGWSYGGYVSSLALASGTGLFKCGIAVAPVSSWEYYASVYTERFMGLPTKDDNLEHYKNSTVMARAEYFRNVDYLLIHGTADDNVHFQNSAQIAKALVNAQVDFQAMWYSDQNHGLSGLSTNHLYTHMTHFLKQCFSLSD
In short: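 Recombinant human FAP, 10 ng per reaction, in 50 mM Tris pH 7.5 with 1 M NaCl and 1 mg/ml BSA at 25° C; substrate Z-Gly-Pro-AMC, ≤0.1% DMSO. AMC fluorescence read at ex 380/em 460 nm; % signal-rate decrease vs no-inhibitor control, 8-point curves fitted to a four-parameter logistic for IC50.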

[2] = molecular target: T2, recombinant human DPP7 (Homo sapiens, UniProt Q9UHL4); experiment: DPP7 inhibition, fluorogenic substrate Lys-Pro-AMC
T2 construct: purchased R&D Systems
In short: (§1)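 Enzyme per reaction: 50 ng DPP9, 20 ng DPP8, 10 ng each DPP7 and PREP. Compounds were serially diluted (8 points, up to 0.5% DMSO) and incubated at 25 °C.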

[3] = molecular target: T3, recombinant human DPP8 (Homo sapiens, UniProt Q6V1X1); experiment: DPP8 inhibition, fluorogenic substrate Z-Ala-Pro-AMC; settings: 25° C., Z-Ala-Pro-AMC substrate
T3 construct: purchased PBS Bioscience
T3 sequence (Q6V1X1 whole entry): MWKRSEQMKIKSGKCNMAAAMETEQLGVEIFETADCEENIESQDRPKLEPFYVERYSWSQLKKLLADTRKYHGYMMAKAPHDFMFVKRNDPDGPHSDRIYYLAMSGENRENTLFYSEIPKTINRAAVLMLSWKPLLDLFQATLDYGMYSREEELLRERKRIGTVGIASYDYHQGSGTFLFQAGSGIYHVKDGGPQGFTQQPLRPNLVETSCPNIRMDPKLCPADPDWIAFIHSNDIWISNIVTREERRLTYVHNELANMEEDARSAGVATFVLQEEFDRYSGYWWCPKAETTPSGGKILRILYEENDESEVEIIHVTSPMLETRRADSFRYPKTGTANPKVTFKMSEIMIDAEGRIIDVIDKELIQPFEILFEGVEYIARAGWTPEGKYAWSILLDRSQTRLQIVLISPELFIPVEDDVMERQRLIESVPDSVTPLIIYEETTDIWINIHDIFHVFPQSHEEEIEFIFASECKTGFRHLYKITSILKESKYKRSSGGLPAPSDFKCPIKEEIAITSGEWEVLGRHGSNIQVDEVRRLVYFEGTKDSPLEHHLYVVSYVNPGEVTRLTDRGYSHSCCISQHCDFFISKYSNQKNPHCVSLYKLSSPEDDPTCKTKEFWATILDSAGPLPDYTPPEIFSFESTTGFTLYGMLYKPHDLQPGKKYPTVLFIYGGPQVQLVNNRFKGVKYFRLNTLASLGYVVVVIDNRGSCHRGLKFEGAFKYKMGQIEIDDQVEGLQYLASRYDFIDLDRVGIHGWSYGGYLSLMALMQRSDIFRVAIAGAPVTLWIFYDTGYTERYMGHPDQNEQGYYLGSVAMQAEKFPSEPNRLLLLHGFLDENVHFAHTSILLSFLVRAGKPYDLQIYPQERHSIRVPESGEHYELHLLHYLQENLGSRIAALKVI
In short: as §1

[4] = molecular target: T4, recombinant human DPP9 (Homo sapiens, UniProt Q86TI2); experiment: DPP9 inhibition, fluorogenic substrate H-Gly-Pro-AMC; settings: 25° C., H-Gly-Pro-AMC substrate
T4 construct: purchased R&D Systems
T4 sequence (Q86TI2 whole entry): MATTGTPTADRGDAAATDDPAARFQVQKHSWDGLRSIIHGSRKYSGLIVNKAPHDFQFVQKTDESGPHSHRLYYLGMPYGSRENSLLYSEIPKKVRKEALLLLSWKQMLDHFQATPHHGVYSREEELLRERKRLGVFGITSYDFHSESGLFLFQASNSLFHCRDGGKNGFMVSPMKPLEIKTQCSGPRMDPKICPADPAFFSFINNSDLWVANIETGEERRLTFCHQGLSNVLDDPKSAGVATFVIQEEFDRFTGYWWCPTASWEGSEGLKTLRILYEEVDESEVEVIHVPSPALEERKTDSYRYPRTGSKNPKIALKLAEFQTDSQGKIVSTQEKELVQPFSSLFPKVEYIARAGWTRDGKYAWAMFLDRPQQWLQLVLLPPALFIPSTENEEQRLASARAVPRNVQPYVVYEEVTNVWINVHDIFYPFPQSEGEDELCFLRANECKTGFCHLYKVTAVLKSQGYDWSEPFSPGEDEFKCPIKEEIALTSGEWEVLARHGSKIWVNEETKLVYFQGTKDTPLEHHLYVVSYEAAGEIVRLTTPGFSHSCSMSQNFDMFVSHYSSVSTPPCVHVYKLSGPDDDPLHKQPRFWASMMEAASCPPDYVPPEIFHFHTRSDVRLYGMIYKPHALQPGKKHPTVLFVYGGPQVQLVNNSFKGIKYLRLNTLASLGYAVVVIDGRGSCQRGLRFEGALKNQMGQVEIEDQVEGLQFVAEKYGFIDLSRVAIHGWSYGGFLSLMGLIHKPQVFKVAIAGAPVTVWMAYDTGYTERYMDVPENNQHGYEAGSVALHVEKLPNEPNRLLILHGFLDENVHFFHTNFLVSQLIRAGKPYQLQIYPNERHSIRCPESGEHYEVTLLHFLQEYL
In short: as §1

[5] = molecular target: T5, recombinant human PREP (Homo sapiens, UniProt P48147); experiment: PREP inhibition, fluorogenic substrate Z-Gly-Pro-AMC; settings: Inhibitory Activity (IC50, nM) PREP, 25° C., Z-Gly-Pro-AMC substrate
T5 construct: purchased R&D System
T5 sequence (P48147 1-710): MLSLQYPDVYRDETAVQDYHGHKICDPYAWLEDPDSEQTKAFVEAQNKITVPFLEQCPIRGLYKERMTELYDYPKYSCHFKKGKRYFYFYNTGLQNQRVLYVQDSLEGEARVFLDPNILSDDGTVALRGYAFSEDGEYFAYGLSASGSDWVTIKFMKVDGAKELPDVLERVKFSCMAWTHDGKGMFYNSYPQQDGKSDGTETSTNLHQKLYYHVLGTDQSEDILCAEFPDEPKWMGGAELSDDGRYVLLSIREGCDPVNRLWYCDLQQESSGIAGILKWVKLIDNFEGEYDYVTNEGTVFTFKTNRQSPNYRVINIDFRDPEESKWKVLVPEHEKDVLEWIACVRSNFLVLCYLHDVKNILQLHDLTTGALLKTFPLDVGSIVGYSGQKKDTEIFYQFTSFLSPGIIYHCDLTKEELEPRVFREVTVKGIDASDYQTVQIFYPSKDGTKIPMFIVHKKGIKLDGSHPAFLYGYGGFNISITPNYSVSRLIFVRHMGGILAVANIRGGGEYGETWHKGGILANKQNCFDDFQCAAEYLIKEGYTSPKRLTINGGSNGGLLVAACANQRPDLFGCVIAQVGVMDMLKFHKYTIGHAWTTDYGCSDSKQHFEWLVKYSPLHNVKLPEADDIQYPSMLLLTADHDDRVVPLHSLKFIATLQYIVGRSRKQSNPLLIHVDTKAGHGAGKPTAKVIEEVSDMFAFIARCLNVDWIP
In short: as §1

[6] = molecular target: DPP4 (Homo sapiens, UniProt P27487); experiment: DPP4 inhibition, fluorogenic substrate H-Gly-Pro-AMC; design: purchased R&D Systems; settings: for IC50: 25° C., H-Gly-Pro-AMC substrate; for inhibition at 1 µM: read-out: hDPP4 inhibition % at 1 μM
Chain of DPP4 (P27487 whole entry): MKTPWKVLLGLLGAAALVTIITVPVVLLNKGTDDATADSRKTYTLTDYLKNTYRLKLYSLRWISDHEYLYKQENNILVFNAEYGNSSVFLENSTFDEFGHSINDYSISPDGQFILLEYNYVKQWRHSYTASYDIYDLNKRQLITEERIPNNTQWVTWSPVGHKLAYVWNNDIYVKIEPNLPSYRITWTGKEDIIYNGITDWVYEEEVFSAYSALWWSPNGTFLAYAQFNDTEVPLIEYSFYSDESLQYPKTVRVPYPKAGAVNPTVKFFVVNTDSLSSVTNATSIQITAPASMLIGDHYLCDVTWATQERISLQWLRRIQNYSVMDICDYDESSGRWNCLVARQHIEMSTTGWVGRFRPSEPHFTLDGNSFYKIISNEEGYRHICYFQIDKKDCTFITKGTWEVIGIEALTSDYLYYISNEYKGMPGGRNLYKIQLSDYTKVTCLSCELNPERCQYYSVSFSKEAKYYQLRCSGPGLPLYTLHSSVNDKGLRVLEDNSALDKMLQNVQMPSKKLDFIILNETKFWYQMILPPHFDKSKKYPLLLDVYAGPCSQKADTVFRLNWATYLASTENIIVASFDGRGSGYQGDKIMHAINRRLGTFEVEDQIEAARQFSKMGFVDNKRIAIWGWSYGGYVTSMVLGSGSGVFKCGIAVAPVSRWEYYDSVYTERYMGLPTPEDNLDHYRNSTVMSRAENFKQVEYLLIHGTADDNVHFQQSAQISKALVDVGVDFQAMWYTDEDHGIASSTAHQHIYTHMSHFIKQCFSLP

## N#C[C@@H]1C[C@H](F)CN1C(=O)CN1CC[C@H](NC(=O)c2coc3cc(F)ccc23)C1 [Example 29, N—((S)-1-(2-((2S,4S)-2-cyano-4-fluoropyrrolidin-1-yl)-2-oxoethyl)pyrrolidin-3-yl)-6-fluorobenzofuran-3-carboxamide]
[1]
  IC50: 0.00622 µM
[2]
  IC50: 0.728 µM
[3]
  IC50: 28.7 µM
[4]
  IC50: 17.5 µM
[5]
  IC50: 6170 nM
[6]
  IC50: > 100 µM

## N#C[C@@H]1CCCN1C(=O)CN1CC[C@H](NC(=O)c2cc3ccccc3s2)C1 [Example 36, N—((S)-1-(2-((S)-2-cyanopyrrolidin-1-yl)-2-oxoethyl)pyrrolidin-3-yl)benzo[b]thiophene-2-carboxamide]
[1]
  IC50: 0.0327 µM
[2]
  IC50: 3.55 µM
[3]
  IC50: 21.8 µM
[4]
  IC50: > 100 µM
[5]
  IC50: 6450 nM
[6]
  IC50: > 1 µM

## N#C[C@@H]1CCCN1C(=O)CN1CC[C@H](NC(=O)c2coc3ccccc23)C1 [Example 37, N—((S)-1-(2-((S)-2-cyanopyrrolidin-1-yl)-2-oxoethyl)pyrrolidin-3-yl)benzofuran-3-carboxamide]
[1]
  IC50: 0.0118 µM
[2]
  IC50: 5.17 µM
[3]
  IC50: 72.8 µM
[4]
  IC50: > 100 µM
[5]
  IC50: 8260 nM
[6]
  IC50: > 1 µM

## N#C[C@@H]1CCCN1C(=O)CN1CC[C@H](NC(=O)c2csc3ccccc23)C1 [Example 41, N—((S)-1-(2-((S)-2-cyanopyrrolidin-1-yl)-2-oxoethyl)pyrrolidin-3-yl)benzo[b]thiophene-3-carboxamide]
[1]
  IC50: 0.0037 µM
[2]
  IC50: 4.13 µM
[3]
  IC50: 62.1 µM
[4]
  IC50: > 100 µM
[5]
  IC50: 3190 nM
[6]
  IC50: > 1 µM

## N#C[C@@H]1CCCN1C(=O)CN1CC[C@H](NC(=O)c2coc3ccc(F)cc23)C1 [Example 43, N—((S)-1-(2-((S)-2-cyanopyrrolidin-1-yl)-2-oxoethyl)pyrrolidin-3-yl)-5-fluorobenzofuran-3-carboxamide]
[1]
  IC50: 0.00994 µM
[2]
  IC50: 3.37 µM
[3]
  IC50: 44.7 µM
[4]
  IC50: > 100 µM
[5]
  IC50: 8350 nM
[6]
  inhibition at 1 µM: 0.2%

## N#C[C@@H]1CCCN1C(=O)CN1CC[C@H](NC(=O)c2coc3cc(F)ccc23)C1 [Example 44, N—((S)-1-(2-((S)-2-cyanopyrrolidin-1-yl)-2-oxoethyl)pyrrolidin-3-yl)-6-fluorobenzofuran-3-carboxamide]
[1]
  IC50: 0.00507 µM
[2]
  IC50: 1.72 µM
[3]
  IC50: 46.2 µM
[4]
  IC50: > 100 µM
[5]
  IC50: 12100 nM
[6]
  inhibition at 1 µM: 1.4%

## N#C[C@@H]1CCCN1C(=O)CN1CC[C@H](NC(=O)c2coc3cccc(O)c23)C1 [Example 48, N—((S)-1-(2-((S)-2-cyanopyrrolidin-1-yl)-2-oxoethyl)pyrrolidin-3-yl)-4-hydroxybenzofuran-3-carboxamide]
[1]
  IC50: 0.00223 µM
[2]
  IC50: 0.762 µM
[3]
  IC50: 12 µM
[4]
  IC50: > 100 µM
[5]
  IC50: 6750 nM
[6]
  inhibition at 1 µM: 3.6%

## N#C[C@@H]1CCCN1C(=O)CN1CC[C@H](NC(=O)c2coc3cc(O)ccc23)C1 [Example 49, N—((S)-1-(2-((S)-2-cyanopyrrolidin-1-yl)-2-oxoethyl)pyrrolidin-3-yl)-6-hydroxybenzofuran-3-carboxamide]
[1]
  IC50: 0.00442 µM
[2]
  IC50: 4.37 µM
[3]
  IC50: 12.3 µM
[4]
  IC50: 92.6 µM
[5]
  IC50: 8360 nM
[6]
  inhibition at 1 µM: 0.6%

## N#C[C@@H]1CCCN1C(=O)CN1CC[C@H](NC(=O)c2coc3c(F)cc(F)cc23)C1 [Example 51, N—((S)-1-(2-((S)-2-cyanopyrrolidin-1-yl)-2-oxoethyl)pyrrolidin-3-yl)-5,7-difluorobenzofuran-3-carboxamide]
[1]
  IC50: 0.0109 µM
[2]
  IC50: 3.32 µM
[3]
  IC50: 38.9 µM
[4]
  IC50: > 100 µM
[5]
  IC50: 13400 nM
[6]
  inhibition at 1 µM: 0.6%

## COc1ccc2c(C(=O)N[C@H]3CCN(CC(=O)N4CCC[C@H]4C#N)C3)coc2c1 [Example 54, N—((S)-1-(2-((S)-2-cyanopyrrolidin-1-yl)-2-oxoethyl)pyrrolidin-3-yl)-6-methoxybenzofuran-3-carboxamide]
[1]
  IC50: 0.00848 µM
[2]
  IC50: 2.39 µM
[3]
  IC50: 23.2 µM
[4]
  IC50: > 100 µM
[5]
  IC50: 5500 nM
[6]
  inhibition at 1 µM: 2%

## N#C[C@@H]1CCCN1C(=O)CN1CC[C@H](NC(=O)c2ccc3ccoc3c2)C1 [Example 57, N—((S)-1-(2-((S)-2-cyanopyrrolidin-1-yl)-2-oxoethyl)pyrrolidin-3-yl)benzofuran-6-carboxamide]
[1]
  IC50: 0.0251 µM
[2]
  IC50: 0.499 µM
[3]
  IC50: 6 µM
[4]
  IC50: 26.5 µM
[5]
  IC50: 10200 nM
[6]
  inhibition at 1 µM: 0.6%

## N#C[C@@H]1CCCN1C(=O)CN1CC[C@H](Oc2cccc3cccnc23)C1 [Example 64, (S)-1-(2-((S)-3-(quinolin-8-yloxy)pyrrolidin-1-yl)acetyl)pyrrolidine-2-carbonitrile]
[1]
  IC50: 0.019 µM
[2]
  IC50: 3.56 µM
[3]
  IC50: > 100 µM
[4]
  IC50: 15.7 µM
[5]
  IC50: 84000 nM
[6]
  IC50: > 1 µM

## N#C[C@@H]1CCCN1C(=O)CN1CC[C@H](Oc2cccc3cnccc23)C1 [Example 65, (S)-1-(2-((S)-3-(isoquinolin-5-yloxy)pyrrolidin-1-yl)acetyl)pyrrolidine-2-carbonitrile]
[1]
  IC50: 0.00677 µM
[2]
  IC50: 3.4 µM
[3]
  IC50: > 100 µM
[4]
  IC50: 70.6 µM
[5]
  IC50: 85700 nM
[6]
  IC50: > 1 µM

## N#C[C@@H]1CCCN1C(=O)CN1CC[C@H](Oc2ncnc3sccc23)C1 [Example 68, (S)-1-(2-((S)-3-(thieno[2,3-d]pyrimidin-4-yloxy)pyrrolidin-1-yl)acetyl)pyrrolidine-2-carbonitrile]
[1]
  IC50: 0.00796 µM
[2]
  IC50: 3.73 µM
[3]
  IC50: > 100 µM
[4]
  IC50: > 100 µM
[5]
  IC50: > 100000 nM
[6]
  IC50: > 1 µM

## N#C[C@@H]1CCCN1C(=O)CN1CC[C@H](Oc2cccc3[nH]c(=O)ccc23)C1 [Example 75, (S)-1-(2-((S)-3-((2-oxo-1,2-dihydroquinolin-5-yl)oxy)pyrrolidin-1-yl)acetyl)pyrrolidine-2-carbonitrile]
[1]
  IC50: 0.00984 µM
[2]
  IC50: 0.814 µM
[3]
  IC50: 93.2 µM
[4]
  IC50: > 100 µM
[5]
  IC50: 5250 nM
[6]
  IC50: > 1 µM

## N#C[C@@H]1CCCN1C(=O)CN1CC[C@H](Oc2ccc(Cl)c3cccnc23)C1 [Example 81, (S)-1-(2-((S)-3-((5-chloroquinolin-8-yl)oxy)pyrrolidin-1-yl)acetyl)pyrrolidine-2-carbonitrile]
[1]
  IC50: 0.0076 µM
[2]
  IC50: 5.94 µM
[3]
  IC50: 27.4 µM
[4]
  IC50: 84.9 µM
[5]
  IC50: 3930 nM
[6]
  IC50: > 1 µM

## COc1ccc2nccc(O[C@H]3CCN(CC(=O)N4CCC[C@H]4C#N)C3)c2c1 [Example 84, (S)-1-(2-((S)-3-((6-methoxyquinolin-4-yl)oxy)pyrrolidin-1-yl)acetyl)pyrrolidine-2-carbonitrile]
[1]
  IC50: 0.001 µM
[2]
  IC50: 9.46 µM
[3]
  IC50: > 100 µM
[4]
  IC50: > 100 µM
[5]
  IC50: 5400 nM
[6]
  IC50: > 1 µM
